Measurements taken from patent US11981686B2, “Urea compound having substituent” (DAIICHI SANKYO COMPANY, LIMITED, priority 2019, dated 2024).

The compounds below were run against SIRT6 enzyme (Homo sapiens, UniProt Q8N6T7) (assay: Measurement of deacetylation activity (SIRT6, AlphaLISA, H3K9(Ac) peptide)). Details: SIRT6 25 ng/mL, H3K9(Ac) biotin peptide 2 nM, NAD 10 μM, room temperature 30 minutes, duplicate.
Assay type: biochemical
How it was run: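 SIRT6 (25 ng/mL final) in Tris-HCl pH 8.0 buffer with compound (e.g. 0.046–100 μM final) reacted with biotin-H3K9(Ac) peptide (2 nM) and NAD+ (10 μM), 30 min, room temperature. Stopped with nicotinamide plus AlphaLISA anti-unmodified H3K9/K27 beads, 60 min; EC150 (150% relative activity) from sigmoidal fit.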

Chain of SIRT6 enzyme (Q8N6T7 whole entry, species assumed): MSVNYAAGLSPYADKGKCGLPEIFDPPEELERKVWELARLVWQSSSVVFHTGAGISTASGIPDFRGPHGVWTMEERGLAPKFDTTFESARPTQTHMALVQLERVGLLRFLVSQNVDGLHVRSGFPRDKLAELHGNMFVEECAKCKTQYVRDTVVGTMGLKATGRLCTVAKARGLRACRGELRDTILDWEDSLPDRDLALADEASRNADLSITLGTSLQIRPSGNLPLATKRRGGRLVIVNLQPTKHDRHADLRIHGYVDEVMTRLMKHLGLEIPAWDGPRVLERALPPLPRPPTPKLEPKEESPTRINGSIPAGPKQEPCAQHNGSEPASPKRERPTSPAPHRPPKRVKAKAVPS

Row | Structure (SMILES) | EC150 (the concentration of the compound showing a relative enzyme activity of 150%) [μm]
1 | C[C@H](CO)NC(=O)Nc1nc2c(s1)CN(c1nc3cc(S(C)(=O)=O)ccc3o1)C(C)(C)C2 [Example 74, N-[(2R)-1-hydroxypropan-2-yl]-N′-{5-[5-(methanesulfonyl)-1,3-benzoxazol-2-yl]-6,6-dimethyl-4,5,6,7-tetrahydro[1,3]thiazolo[5,4-c]pyridin-2-yl}urea] | 0.68
2 | COc1ccc2oc(N3[C@@H]4COC[C@H]3c3sc(NC(=O)NC(C)(C)CO)nc3C4)nc2c1 [Example 58, N-(1-hydroxy-2-methylpropan-2-yl)-N′-[(4S,8S)-10-(5-methoxy-1,3-benzoxazol-2-yl)-4,7,8,9-tetrahydro-5H-4,8-epiminooxocino[5,4-d][1,3]thiazol-2-yl]urea] | 2.4
3 | O=C(NCc1ccc[nH]c1=O)Nc1nc2c(s1)CN(c1nc(C3CCC(F)(F)CC3)no1)CC2 [Example 103, N-{5-[3-(4,4-difluorocyclohexyl)-1,2,4-oxadiazol-5-yl]-4,5,6,7-tetrahydro[1,3]thiazolo[5,4-c]pyridin-2-yl}-N′-[(2-oxo-1,2-dihydropyridin-3-yl)methyl]urea] | 1.8
4 | C[C@@H](CO)NC(=O)Nc1nc2c(s1)[C@@H]1COC[C@H](C2)N1c1ncc(-c2cccc(OC(F)F)n2)o1 [Example 169, N-[(4S,8S)-10-{5-[6-(difluoromethoxy)pyridin-2-yl]-1,3-oxazol-2-yl}-4,7,8,9-tetrahydro-5H-4,8-epiminooxocino[5,4-d][1,3]thiazol-2-yl]-N′-[(2S)-1-hydroxypropan-2-yl]urea] | 0.66
5 | O=C(Nc1nc2c(s1)[C@@H]1COC[C@H](C2)N1c1ncc(-c2cccc(C(F)F)c2)o1)N[C@H]1C[C@H](O)C1 [Example 166, N-(10-{5-[3-(difluoromethyl)phenyl]-1,3-oxazol-2-yl}-4,7,8,9-tetrahydro-5H-4,8-epiminooxocino[5,4-d][1,3]thiazol-2-yl)-N′-[(1r,3r)-3-hydroxycyclobutyl]urea] | 0.21
6 | CC(C)(O)CNC(=O)Nc1nc2c(s1)[C@@H]1COC[C@H](C2)N1c1cc(-c2ccc(F)cc2)on1 [Example 63, N-{(4S,8S)-10-[5-(4-fluorophenyl)-1,2-oxazol-3-yl]-4,7,8,9-tetrahydro-5H-4,8-epiminooxocino[5,4-d][1,3]thiazol-2-yl}-N′-(2-hydroxy-2-methylpropyl)urea] | 2.3
7 | CNC(=O)Nc1nc2c(s1)C1CN(C(=O)OC)CC(C2)N1c1nc(C2CCC(F)(F)C2)no1 (stereo not drawn) [Example 131, Methyl 10-[3-(3,3-difluorocyclopentyl)-1,2,4-oxadiazol-5-yl]-2-[(methylcarbamoyl)amino]-4,7,8,9-tetrahydro-4,8-epimino[1,3]thiazolo[5,4-d]azocin-6(5H)-carboxylate] | 1.4
8 | CCOc1ccc2oc(N3[C@@H]4COC[C@H]3c3sc(NC(=O)N[C@H](C)CO)nc3C4)nc2c1 [Example 52, N-[(4S,8S)-10-(5-ethoxy-1,3-benzoxazol-2-yl)-4,7,8,9-tetrahydro-5H-4,8-epiminooxocino[5,4-d][1,3]thiazol-2-yl]-N′-[(2R)-1-hydroxypropan-2-yl]urea] | 1.9
9 | CNC(=O)Nc1nc2c(s1)[C@@H]1COC[C@H](C2)N1c1nnc(-c2cccc(OC(C)C)c2)o1 [Example 122, N-methyl-N′-[(4S,8S)-10-(5-{3-[(propan-2-yl)oxy]phenyl}-1,3,4-oxadiazol-2-yl)-4,7,8,9-tetrahydro-5H-4,8-epiminooxocino[5,4-d][1,3]thiazol-2-yl]urea] | 1.5
10 | O=C(Nc1nc2c(s1)[C@@H]1COC[C@H](C2)N1c1nc(-c2ccc(F)cc2)no1)N[C@H]1C[C@@H](O)C1 [Example 85, N-{10-[3-(4-fluorophenyl)-1,2,4-oxadiazol-5-yl]-4,7,8,9-tetrahydro-5H-4,8-epiminooxocino[5,4-d][1,3]thiazol-2-yl}-N′-[(1s,3s)-3-hydroxycyclobutyl]urea] | 0.51
11 | CCOc1cccc(-c2nnc(N3[C@@H]4COC[C@H]3c3sc(NC(=O)NC)nc3C4)o2)c1 [Example 121, N-{(4S,8S)-10-[5-(3-ethoxyphenyl)-1,3,4-oxadiazol-2-yl]-4,7,8,9-tetrahydro-5H-4,8-epiminooxocino[5,4-d][1,3]thiazol-2-yl}-N′-methylurea] | 2.1
12 | CNC(=O)Nc1nc2c(s1)[C@@H]1COC[C@H](C2)N1c1nc(C2CCC(F)(F)CC2)no1 [Example 7, N-{(4S,8S)-10-[3-(4,4-difluorocyclohexyl)-1,2,4-oxadiazol-5-yl]-4,7,8,9-tetrahydro-5H-4,8-epiminooxocino[5,4-d][1,3]thiazol-2-yl}-N′-methylurea] | 5.7
13 | CCOc1ccc2oc(N3[C@@H]4COC[C@H]3c3sc(NC(=O)NCC(C)(C)O)nc3C4)nc2c1 [Example 40, N-[(4S,8S)-10-(5-ethoxy-1,3-benzoxazol-2-yl)-4,7,8,9-tetrahydro-5H-4,8-epiminooxocino[5,4-d][1,3]thiazol-2-yl]-N′-(2-hydroxy-2-methylpropyl)urea] | 3.1
14 | C[C@H](CO)NC(=O)Nc1nc2c(s1)[C@@H]1COC[C@H](C2)N1c1nc2cc(Cl)ccc2o1 [Example 59, N-[(4S,8S)-10-(5-chloro-1,3-benzoxazol-2-yl)-4,7,8,9-tetrahydro-5H-4,8-epiminooxocino[5,4-d][1,3]thiazol-2-yl]-N′-[(2R)-1-hydroxypropan-2-yl]urea] | 0.44
15 | CC(C)OC(=O)N1CC2Cc3nc(NC(=O)NC4CCOCC4)sc3C(C1)N2c1nc(-c2ccc(F)cc2)no1 (stereo not drawn) [Example 143, Propan-2-yl-10-[3-(4-fluorophenyl)-1,2,4-oxadiazol-5-yl]-2-{[(oxan-4-yl)carbamoyl]amino}-4,7,8,9-tetrahydro-4,8-epimino[1,3]thiazolo[5,4-d]azocine-6(5H)-carboxylate] | 0.62
16 | CNC(=O)Nc1nc2c(s1)[C@H]1CN(CCO)C[C@@H](C2)N1c1nc(-c2ccc(F)cc2)no1 [Example 127, N-[(4R,8R)-10-[3-(4-fluorophenyl)-1,2,4-oxadiazol-5-yl]-6-(2-hydroxyethyl)-4,5,6,7,8,9-hexahydro-4,8-epimino[1,3]thiazolo[5,4-d]azocin-2-yl]-N′-methylurea] | 2.1
17 | CC(OCC(F)(F)F)c1noc(N2CCc3nc(NC(=O)N[C@H](C)CO)sc3C2)n1 (stereo partly drawn) [Example 89, N-[(2R)-1-hydroxypropan-2-yl]-N′-(5-{3-[1-(2,2,2-trifluoroethoxy)ethyl]-1,2,4-oxadiazol-5-yl}-4,5,6,7-tetrahydro[1,3]thiazolo[5,4-c]pyridin-2-yl)urea] | 2.9
18 | COc1cccc(-c2cnc(N3[C@@H]4COC[C@H]3c3sc(NC(=O)N[C@@H]5CCOC5)nc3C4)o2)n1 [Example 185, N-{(4S,8S)-10-[5-(6-methoxypyridin-2-yl)-1,3-oxazol-2-yl]-4,7,8,9-tetrahydro-5H-4,8-epiminooxocino[5,4-d][1,3]thiazol-2-yl}-N′-[(3R)-oxolan-3-yl]urea] | 0.4
19 | CNC(=O)Nc1nc2c(s1)[C@H]1CN(C(=O)C(C)C)C[C@@H](C2)N1c1nc(-c2ccc(F)cc2)no1 [Example 125, N-[(4R,8R)-10-[3-(4-fluorophenyl)-1,2,4-oxadiazol-5-yl]-6-(2-methylpropanoyl)-4,5,6,7,8,9-hexahydro-4,8-epimino[1,3]thiazolo[5,4-d]azocin-2-yl]-N′-methylurea] | 2.4
20 | CNC(=O)Nc1nc2c(s1)CN(c1nc(-c3cccc(OC(F)(F)F)c3)no1)CC2 [Example 8, N-methyl-N′-(5-{3-[3-(trifluoromethoxy)phenyl]-1,2,4-oxadiazol-5-yl}-4,5,6,7-tetrahydro[1,3]thiazolo[5,4-c]pyridin-2-yl)urea] | 3.6
21 | Cc1ccc2oc(N3[C@@H]4COC[C@H]3c3sc(NC(=O)NCC(C)(C)O)nc3C4)nc2c1 [Example 145, N-(2-hydroxy-2-methylpropyl)-N′-[(4S,8S)-10-(5-methyl-1,3-benzoxazol-2-yl)-4,7,8,9-tetrahydro-5H-4,8-epiminooxocino[5,4-d][1,3]thiazol-2-yl]urea] | 2.2
22 | CC(C)(CO)NC(=O)Nc1nc2c(s1)[C@@H]1COC[C@H](C2)N1c1cc(-c2ccc(F)cc2)on1 [Example 160, N-{(4S,8S)-10-[5-(4-fluorophenyl)-1,2-oxazol-3-yl]-4,7,8,9-tetrahydro-5H-4,8-epiminooxocino[5,4-d][1,3]thiazol-2-yl}-N′-(1-hydroxy-2-methylpropan-2-yl)urea] | 3.2
23 | CNC(=O)Nc1nc2c(s1)C1CN(C(C)=O)CC(C2)N1c1nc2cc(F)ccc2o1 (stereo not drawn) [Example 130, N-[6-acetyl-10-(5-fluoro-1,3-benzoxazol-2-yl)-4,5,6,7,8,9-hexahydro-4,8-epimino[1,3]thiazolo[5,4-d]azocin-2-yl]-N′-methylurea] | 3.7
24 | CC(C)(O)CNC(=O)Nc1nc2c(s1)CN(c1nc(C3CCCC(F)(F)C3)no1)CC2 (stereo not drawn) [Example 28, N-{5-[3-(3,3-difluorocyclohexyl)-1,2,4-oxadiazol-5-yl]-4,5,6,7-tetrahydro[1,3]thiazolo[5,4-c]pyridin-2-yl}-N′-(2-hydroxy-2-methylpropyl)urea] | 2.1
